Data as given in US9249145B2, “Heterocyclic derivatives of pyrazol-4-yl-pyrrolo[2,3-d]pyrimidines as janus kinase inhibitors” (Incyte Holdings Corporation, priority 2009, dated 2016).
Structures can show the parent of a compound that is named as a salt. Where two headings read alike, the source gives them in different places.

How the values were obtained:
[1] = target: T1, human JAK1 (a.a. 837-1142) (Homo sapiens, UniProt P23458); assay: In vitro JAK kinase assay (HTRF, phosphorylation of biotinylated peptide), JAK1; format: biochemical; settings: 1 mM ATP
T1 construct: The catalytic domains of human JAK1 (a.a. 837-1142); His tag (N); made in house; host or cells: insect cells (baculovirus)
T1 sequence (P23458 849-1154): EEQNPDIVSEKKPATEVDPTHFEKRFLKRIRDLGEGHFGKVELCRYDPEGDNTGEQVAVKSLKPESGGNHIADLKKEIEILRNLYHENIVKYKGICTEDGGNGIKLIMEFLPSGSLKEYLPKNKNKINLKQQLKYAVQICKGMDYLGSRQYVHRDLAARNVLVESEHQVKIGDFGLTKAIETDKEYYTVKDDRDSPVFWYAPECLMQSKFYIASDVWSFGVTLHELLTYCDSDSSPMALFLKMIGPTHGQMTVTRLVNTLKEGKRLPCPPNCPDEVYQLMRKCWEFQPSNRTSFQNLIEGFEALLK
Procedure, shortened: (§1)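 His-tagged catalytic domains expressed in baculovirus/insect cells; biotinylated peptide (500 nM) phosphorylation in 50 mM Tris pH 7.8, 100 mM NaCl, 5 mM DTT, 0.01% BSA, 1 h room temperature. ATP at Km (JAK1 90 μM, JAK2 30 μM) or 1 mM. EDTA stop, Eu-Py20/SA-APC HTRF read; IC50.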

Jak2 (a.a. 828-1132) = target: T2, Jak2 (a.a. 828-1132) (Homo sapiens, UniProt O60674); assay: In vitro JAK kinase assay (HTRF, phosphorylation of biotinylated peptide), JAK2; format: biochemical; settings: 1 mM ATP
T2 construct: Jak2 (a.a. 828-1132); His tag (N); made in house; host or cells: insect cells (baculovirus)
T2 sequence (O60674 828-1132): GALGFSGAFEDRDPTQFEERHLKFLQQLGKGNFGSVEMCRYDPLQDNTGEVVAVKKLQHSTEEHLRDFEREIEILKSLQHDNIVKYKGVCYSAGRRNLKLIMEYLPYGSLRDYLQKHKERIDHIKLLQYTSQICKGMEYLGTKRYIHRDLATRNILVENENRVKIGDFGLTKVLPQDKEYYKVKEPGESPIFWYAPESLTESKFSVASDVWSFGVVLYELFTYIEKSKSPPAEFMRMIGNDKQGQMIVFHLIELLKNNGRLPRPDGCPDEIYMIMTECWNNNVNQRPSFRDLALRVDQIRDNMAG
Procedure, shortened: as §1

[2] = Examples 12-91, read-out: JAK1 IC50 (nM) @ 1 mM ATP
[3] = Examples 12-91, read-out: JAK2 IC50 (nM) @ 1 mM ATP

| SMILES | IC50 [1, 2] | IC50 (Jak2 (a.a. 828-1132); [3]) | also measured |
| --- | --- | --- | --- |
| Cc1cccc(S(=O)(=O)N2CCN(CC(CC#N)n3cc(-c4ncnc5[nH]ccc45)cn3)CC2)n1 (centres unmarked) [Example 64, 3-(4-(7H-pyrrolo[2,3-d]pyrimidin-4-yl)-1H-pyrazol-1-yl)-4-(4-(6-methylpyridin-2-ylsulfonyl)piperazin-1-yl)butanenitrile] | < 10 nM | < 10 nM |  |
| N#CCC(CN1CCN(C(=O)c2c(F)cc(F)cc2F)CC1)n1cc(-c2ncnc3[nH]ccc23)cn1 (centres unmarked) [Example 29, 3-(4-(7H-pyrrolo[2,3-d]pyrimidin-4-yl)-1H-pyrazol-1-yl)-4-(4-(2,4,6-trifluorobenzoyl)piperazin-1-yl)butanenitrile] | < 10 nM | < 10 nM |  |
| N#CCC(CN1CCN(C(=O)c2ccc(C#N)cc2F)CC1)n1cc(-c2ncnc3[nH]ccc23)cn1 (single isomer, unassigned) [Example 12, 4-[(4-{3-cyano-2-[4-(7H-pyrrolo[2,3-d]pyrimidin-4-yl)-1H-pyrazol-1-yl]propyl}piperazin-1-yl)carbonyl]-3-fluorobenzonitrile trifluoroacetate Salt] | < 10 nM | 50 to 100 nM |  |
| Cn1ccc(S(=O)(=O)N2CCN(CC(CF)n3cc(-c4ncnc5[nH]ccc45)cn3)CC2)n1 (racemic) [Example 10, (±)-4-(1-(1-fluoro-3-(4-(1-methyl-1H-pyrazol-3-ylsulfonyl)piperazin-1-yl)propan-2-yl)-1H-pyrazol-4-yl)-7H-pyrrolo[2,3-d]pyrimidine] |  |  | IC50 ([1]; Examples 1-11, read-out: IC50 (nM) @ 1 mM ATP JAK1): < 10 nM; IC50 (Jak2 (a.a. 828-1132); Examples 1-11, read-out: IC50 (nM) @ 1 mM ATP JAK2): > 20 nM |
| N#CCC(CN1CCN(C(=O)c2ccc(C(F)F)cc2F)CC1)n1ccc(-c2ncnc3[nH]ccc23)c1 (centres unmarked) [Example 91, 3-(3-(7H-pyrrolo[2,3-d]pyrimidin-4-yl)-1H-pyrrol-1-yl)-4-(4-(4-(difluoromethyl)-2-fluorobenzoyl)piperazin-1-yl)butanenitrile] | < 10 nM | 10 to 50 nM |  |
| Cc1ccccc1S(=O)(=O)N1CCCN(CC(CC#N)n2cc(-c3ncnc4[nH]ccc34)cn2)CC1 (centres unmarked) [Example 108, 4-{4-[(2-methylphenyl)sulfonyl]-1,4-diazepan-1-yl}-3-[4-(7H-pyrrolo[2,3-d]pyrimidin-4-yl)-1H-pyrazol-1-yl]butanenitrile] |  |  | IC50 ([1]; Examples 92-162, read-out: JAK1 IC50 (nM) @ 1 mM ATP): < 20 nM; IC50 (Jak2 (a.a. 828-1132); Examples 92-162, read-out: JAK2 IC50 (nM) @ 1 mM ATP): 50 to 100 nM |
| N#CCC(CN1CCN(C(=O)Nc2ccccc2C(F)(F)F)CC1)n1cc(-c2ncnc3[nH]ccc23)cn1 (centres unmarked) [Example 76, 4-(2-(4-(7H-pyrrolo[2,3-d]pyrimidin-4-yl)-1H-pyrazol-1-yl)-3-cyanopropyl)-N-(2-(trifluoromethyl)phenyl)piperazine-1-carboxamide] | 10 to 50 nM | > 100 nM |  |
